This note sets out measurements from article doi:10.1101/2022.09.20.508773v1 (biorxiv, 2022).

One may read the Kd as the constant that tells how readily two partners part at equilibrium. Read a high Kd as weaker binding.

For the assay, the target named is T1, NΔ47-TPH2-R (Homo sapiens, UniProt Q8IWU9).
T1 sequence (Q8IWU9 48-145): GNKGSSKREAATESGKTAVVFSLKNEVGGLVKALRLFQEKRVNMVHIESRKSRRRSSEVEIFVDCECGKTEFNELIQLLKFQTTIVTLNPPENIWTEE
Put plainly: protein-observed NMR titration, 1H-15N HSQC, 2D line-shape analysis. In kind it is binding.

`N[C@@H](Cc1ccccc1)C(=O)O` [L-Phe] displayed a Kd of 40.8 ± 0.8 µM.
